Values of other authors as cited in patent US5296468A, “GnRH analogs” (The Salk Institute for Biological Studies, priority 1993, dated 1994).

Tests used:
[1] = background, U.S. Pat. No. 4,072,668
the receptor = biological target: T1, the receptor (Homo sapiens, UniProt P30968); settings: background, U.S. Pat. No. 4,072,668
T1 sequence (P30968 1-328): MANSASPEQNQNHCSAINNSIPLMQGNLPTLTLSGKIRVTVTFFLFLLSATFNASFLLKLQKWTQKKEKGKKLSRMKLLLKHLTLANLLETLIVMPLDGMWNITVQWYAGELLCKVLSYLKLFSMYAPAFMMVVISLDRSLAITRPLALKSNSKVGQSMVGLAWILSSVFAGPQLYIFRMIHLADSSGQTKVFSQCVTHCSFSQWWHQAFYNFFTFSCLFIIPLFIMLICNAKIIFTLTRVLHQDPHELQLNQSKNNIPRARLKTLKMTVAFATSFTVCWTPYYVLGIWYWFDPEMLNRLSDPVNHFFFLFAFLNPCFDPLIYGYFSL

binding strength to the receptor compared with the native hormone (the receptor): greater binding strength to the receptor
Substance: pGlu-His-Trp-Ser-Tyr-D-Ala-Leu-Arg-Pro-Gly-NH2 [[D-Ala^6]-GnRH]
biological potency compared with the native hormone [1]: greater biological potency than the native hormone
